Experimental findings from paper PMC6522510 (Nature Communications, 2019) are described below.

Assay in all cases: cells
What all share (set-up): species or system AML cell lines (8); Secondary HTS, 10-point dose-response in triplicate, Cell Titer Glo viability, four-parameter fit EC50

One test relates to CHRF288-11. Conditions: 72 h, read-out: CHRF288-11.
A further test deals with CMS. Conditions: 72 h, read-out: CMS.
The test system of the next test is ML-2. The following applies: Homo sapiens, ML-2, 72 h, read-out: ML-2.
The subject of a further test is M07e. Conditions: M-07e, 72 h, read-out: M07e.
The subject of another test is U937. The following applies: Homo sapiens, U-937, 72 h, read-out: U937.
Another test deals with CMK. The following applies: Homo sapiens, CMK, 72 h, read-out: CMK.
In another test the test system is MOLM-13. The following applies: Homo sapiens, MOLM-13, 72 h, read-out: MOLM-13.
A further test has as its system MV4-11. The following applies: Homo sapiens, MV4-11, 72 h, read-out: MV4-11.

Where a name gives a salt, the structure may show the parent alone.

As to `COCCCn1c(N)c(C(=O)NC2CCCC2)c2nc3ccccc3nc21` [SJ000479457, CAY10591], the EC50 in the test on CHRF288-11, in the test on CMS, in the test on ML-2, in the test with M07e, in the test on U937 and in the test with CMK was over 10 µM each time. Moreover, the EC50 in the test on MOLM-13 and in the test with MV4-11 was over 10 µM each time.
For `OC[C@H]1NC[C@H](O)[C@@H](O)[C@H]1O`, the EC50 in the test with CHRF288-11, with CMS, in the test on ML-2, in the test on M07e, in the test with U937 and in the test on CMK was over 10 µM in each case. In addition, the EC50 in the test with MOLM-13 and in the test on MV4-11 was over 10 µM each time.
Consider `Cc1cccc(-c2nn3c(c2-c2ccnc4ccc(C(N)=O)cc24)CCC3)n1` [LY2157299], for which the EC50 with CHRF288-11, in the test with CMS, in the test with ML-2, in the test on M07e, in the test with U937 and in the test on CMK was over 10 µM in each case. Also, the EC50 in the test with MOLM-13 and with MV4-11 was over 10 µM throughout.
Turning to `Cn1nnc2c(C(N)=O)ncn2c1=O` [TEMOZOLOMIDE], the EC50 in the test with CHRF288-11, in the test on CMS, with ML-2, in the test with M07e, in the test on U937 and in the test with CMK was over 10 µM each time. Besides, the EC50 with MOLM-13 and with MV4-11 was over 10 µM each time.
Turning to `CCCCNc1ncc2c(-c3ccc(CN4CCN(C)CC4)cc3)cn(C3CCC(O)CC3)c2n1` (stereo not drawn) [SJ000821849, UNC2025A], the EC50 in the test on CHRF288-11 is 6.4 µM; in the test on CMS, over 10 µM; in the test on ML-2, 5 µM; in the test with M07e, 8.2 µM; in the test with U937, 8.1 µM; in the test on CMK it was 4.6 µM. Further, the values for the EC50 in the test with MOLM-13 and with MV4-11 were 0.021 µM and 0.001 µM, respectively.
Consider `CC(C)c1nc(N(C)S(C)(=O)=O)nc(-c2ccc(F)cc2)c1/C=C/[C@@H](O)C[C@@H](O)CC(=O)O` [ROSUVASTATIN], for which the EC50 in the test with CHRF288-11, in the test with CMS, with ML-2, with M07e, in the test on U937 and in the test with CMK was over 10 µM in each case. The EC50 in the test with MOLM-13 and with MV4-11 was over 10 µM in each case.
Turning to `COc1ccc2c(c1OC)C(=O)O[C@@H]2[C@H]1c2c(cc3c(c2OC)OCO3)CCN1C` [NOSCAPINE HYDROCHLORIDE], the EC50 in the test on CHRF288-11, in the test with CMS, in the test on ML-2, in the test on M07e, with U937 and with CMK was over 10 µM each time. Also, the EC50 in the test on MOLM-13 and with MV4-11 was over 10 µM each time.
Turning to `CC(C)(C#N)c1cc(Cn2cncn2)cc(C(C)(C)C#N)c1` [ANASTROZOLE], the EC50 in the test with CHRF288-11, with CMS, with ML-2, in the test on M07e, with U937 and in the test with CMK was over 10 µM in each case. For the same compound, the EC50 with MOLM-13 and in the test with MV4-11 was over 10 µM throughout.
Regarding `CNCc1ccc(-c2[nH]c3cc(F)cc4c3c2CCNC4=O)cc1` [RUCAPARIB], the EC50 in the test on CHRF288-11, with CMS, in the test on ML-2, in the test on M07e, in the test with U937 and in the test on CMK was over 10 µM in each case. Moreover, the EC50 in the test with MOLM-13 and in the test on MV4-11 was over 10 µM throughout.
For the compound `COc1ccc(Cl)c(Nc2nc3ccccc3nc2NS(=O)(=O)c2cccc(NC(=O)C(C)(C)N)c2)c1` [XL147], the EC50 with CHRF288-11, in the test on CMS, with ML-2, with M07e, in the test on U937 and in the test with CMK was over 10 µM each time. In addition, the EC50 in the test with MOLM-13 and in the test on MV4-11 was over 10 µM in each case.
Regarding `CC1(C)CCC(C)(C)c2cc(NC(=O)c3ccc(C(=O)O)cc3)ccc21` [TAMIBAROTENE], the EC50 in the test on CHRF288-11, in the test with CMS, with ML-2, in the test with M07e, in the test with U937 and in the test with CMK was over 10 µM in each case. Moreover, the EC50 in the test on MOLM-13 and in the test with MV4-11 was over 10 µM throughout.
`CC(C)(C(=O)NCC(F)(F)C(F)(F)F)C(=O)N[C@@H]1C(=O)Nc2ccccc2-c2ccccc21` [RO-4929097]: the EC50 in the test on CHRF288-11, with CMS, in the test with ML-2, with M07e, in the test with U937 and in the test with CMK was over 10 µM throughout. In addition, the EC50 in the test with MOLM-13 and in the test with MV4-11 was over 10 µM each time.
As for `Nc1ncnc2c1ncn2[C@@H]1O[C@H](C(=O)N2CCN(CC(=O)Nc3cccc4c3CNC4=O)CC2)[C@@H](O)[C@H]1O` [SJ000785896, EB-47], the EC50 in the test on CHRF288-11, in the test on CMS, in the test with ML-2, with M07e, in the test with U937 and in the test on CMK was over 10 µM throughout. The EC50 with MOLM-13 and with MV4-11 was over 10 µM in each case.
In the case of `N#Cc1ccc(COC[C@H]2O[C@@H](n3c(NCc4ccc(Cl)c(Cl)c4)nc4c(N)ncnc43)[C@H](O)[C@@H]2O)cc1` [SJ000833885, VER-155008], the EC50 in the test with CHRF288-11 is over 10 µM; with CMS, 5.9 µM; in the test with ML-2 it was over 10 µM; in the test with M07e it was over 10 µM; with U937, over 10 µM; in the test with CMK, over 10 µM. Besides, the EC50 with MOLM-13 and in the test with MV4-11 was over 10 µM each time.
Take `COc1ccc(/C=C/c2ccccc2F)cc1` [SJ000796052, CAY10512]: the EC50 in the test with CHRF288-11, in the test with CMS, in the test with ML-2, with M07e, with U937 and in the test on CMK was over 10 µM each time. Further, the EC50 in the test with MOLM-13 and with MV4-11 was over 10 µM throughout.
For `CC(C)(C)c1ccc(S(=O)(=O)/C=C/C#N)cc1` [SJ000287676, BAY 11-7085], the EC50 with CHRF288-11 was found to be 1.4 µM; with CMS, 3.1 µM; in the test on ML-2, 1 µM; in the test on M07e it was 3.2 µM; with U937, 0.93 µM; in the test on CMK, 3.9 µM. Moreover, the EC50 came to 1.5 µM in the test on MOLM-13 and 1.4 µM in the test with MV4-11.
Consider `Nc1nc(=O)n([C@H]2C[C@H](O)[C@@H](CO)O2)cc1F` [SJ000785889, 5-FLUORODEOXYCYTIDINE], for which the EC50 was 3.17 µM in the test with CHRF288-11; over 10 µM in the test on CMS; 0.0089 µM in the test with ML-2; over 10 µM with M07e; over 10 µM in the test with U937; 0.14 µM with CMK. Further, the EC50 in the test with MOLM-13 was 0.45 µM; with MV4-11 it was over 10 µM.
Regarding `Cn1cc(C2=C(c3cn(C4CCN(Cc5ccccn5)CC4)c4ccccc34)C(=O)NC2=O)c2ccccc21` [ENZASTAURIN], the EC50 in the test on CHRF288-11, with CMS, in the test on ML-2, with M07e, in the test with U937 and with CMK was over 10 µM in each case. For the same compound, the EC50 with MOLM-13 and in the test on MV4-11 was over 10 µM each time.
As for `Cn1cccc1/C=C1\C(=O)NC(=O)c2ccccc21` [SJ000784271, BYK 204165], the EC50 is 5.5 µM with CHRF288-11; 2.2 µM in the test on CMS; over 10 µM with ML-2; 0.63 µM in the test with M07e; 1.6 µM with U937; over 10 µM with CMK. Further, the EC50 in the test on MOLM-13 was 0.26 µM; in the test with MV4-11 it was 0.72 µM.
For the compound `Clc1ccc(C(c2ccccc2Cl)C(Cl)Cl)cc1` (stereo not drawn) [MITOTANE], the EC50 with CHRF288-11, with CMS, in the test with ML-2, with M07e, in the test with U937 and in the test with CMK was over 10 µM throughout. For the same compound, the EC50 in the test with MOLM-13 and in the test with MV4-11 was over 10 µM in each case.
As to `COc1ccc(C[C@H](NC(=O)[C@H](C)NC(=O)CN2CCOCC2)C(=O)N[C@@H](Cc2ccccc2)C(=O)C2(C)CO2)cc1` (stereo in doubt) [SJ000834147, ONX-0914], the EC50 with CHRF288-11 worked out at 0.169 µM; in the test on CMS it was 0.11 µM; with ML-2, 0.0426 µM; in the test on M07e, 0.0789 µM; in the test with U937, 0.134 µM; in the test with CMK it was 0.23 µM. Moreover, the EC50 with MOLM-13 was found to be 0.0727 µM; in the test on MV4-11 it was 0.046 µM.
